Laboratory results from ChEMBL document CHEMBL1201862, “PubChem BioAssay data set” (2004).
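Assay format: 96-well plates, 48-hour exposure. At the GI50, growth is halved.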 Active and inactive are the calls of the source. Cut-off read from the data, not from the text of the source: active = GI50 up to about 1.1 µM and inactive = higher.

How the values were obtained:
Test in all cases: DTP human tumour cell line panel, 48 h
COLO 205 = test system: COLO 205
HCT-15 = test system: HCT-15
MOLT-4 = test system: MOLT-4
SNB-78 = test system: SNB-78
UO-31 = test system: UO-31
HCT-116 = test system: HCT-116
U-251 = test system: U-251
CCRF-CEM = test system: CCRF-CEM
M14 = test system: M14
LXFL 529 = test system: LXFL 529
LOX IMVI = test system: LOX IMVI
A498 = test system: A498
IGROV-1 = test system: IGROV-1
RXF 631 = test system: RXF 631
ACHN = test system: ACHN
OVCAR-4 = test system: OVCAR-4
RPMI-8226 = test system: RPMI-8226
TK-10 = test system: TK-10
DMS-114 = test system: DMS-114
OVCAR-5 = test system: OVCAR-5
CAKI-1 = test system: CAKI-1
SN12C = test system: SN12C
NCI-H522 = test system: NCI-H522
SNB-19 = test system: SNB-19
UACC-62 = test system: UACC-62
XF498 = test system: XF498
SW-620 = test system: SW-620
SK-MEL-5 = test system: SK-MEL-5
HL-60 = test system: HL-60
NCI-H226 = test system: NCI-H226
SF-295 = test system: SF-295
Malme-3M = test system: Malme-3M
K562 = test system: K562
UACC-257 = test system: UACC-257
OVCAR-8 = test system: OVCAR-8
HOP-92 = test system: HOP-92
DMS-273 = test system: DMS-273
786-0 = test system: 786-0
SK-OV-3 = test system: SK-OV-3
SF-539 = test system: SF-539
A549 = test system: A549
EKVX = test system: EKVX
KM-20L2 = test system: KM-20L2
DLD-1 = test system: DLD-1
NCI-H23 = test system: NCI-H23
KM12 = test system: KM12
SF-268 = test system: SF-268
M19-MEL = test system: M19-MEL
HT-29 = test system: HT-29
OVCAR-3 = test system: OVCAR-3
HCC 2998 = test system: HCC 2998
SK-MEL-2 = test system: SK-MEL-2
NCI-H460 = test system: NCI-H460
HOP-18 = test system: HOP-18
RXF 393 = test system: RXF 393
SR = test system: SR
SK-MEL-28 = test system: SK-MEL-28
HOP-62 = test system: HOP-62
MCF7 = test system: MCF7
PC-3 = test system: PC-3
NCI/ADR-RES = test system: NCI/ADR-RES
Hs-578T = test system: Hs-578T
T47D = test system: T47D
MDA-N = test system: MDA-N
DU-145 = test system: DU-145
BT-549 = test system: BT-549
SNB-75 = test system: SNB-75
MDA-MB-435 = test system: MDA-MB-435

Measured: GI50

O=C(CCC(=O)Nc1cccc(C(F)(F)F)c1)CC(=O)c1ccc2ccccc2c1
> 100 µM: HCT-15
inactive: COLO 205 > 100 µM | MOLT-4 > 100 µM | SNB-78 > 100 µM | UO-31 > 100 µM | HCT-116 > 100 µM | U-251 > 100 µM | CCRF-CEM > 100 µM | M14 > 100 µM | LXFL 529 > 100 µM | LOX IMVI > 100 µM | A498 > 100 µM | IGROV-1 > 100 µM | RXF 631 > 100 µM | ACHN > 100 µM | OVCAR-4 > 100 µM | RPMI-8226 > 100 µM | TK-10 > 100 µM | DMS-114 > 100 µM | OVCAR-5 > 100 µM | CAKI-1 > 100 µM | SN12C > 100 µM | NCI-H522 > 100 µM | SNB-19 > 100 µM | UACC-62 > 100 µM | XF498 > 100 µM | SW-620 > 100 µM | SK-MEL-5 > 100 µM | HL-60 > 100 µM | NCI-H226 > 100 µM | SF-295 > 100 µM | Malme-3M > 100 µM | K562 > 100 µM | UACC-257 > 100 µM | OVCAR-8 > 100 µM | HOP-92 > 100 µM | DMS-273 > 100 µM | 786-0 > 100 µM | SK-OV-3 > 100 µM | SF-539 > 100 µM | A549 > 100 µM | EKVX > 100 µM | KM-20L2 > 100 µM | DLD-1 > 100 µM | NCI-H23 > 100 µM | KM12 > 100 µM | SF-268 > 100 µM | M19-MEL > 100 µM | HT-29 > 100 µM | OVCAR-3 > 100 µM | HCC 2998 > 100 µM | SK-MEL-2 > 100 µM | NCI-H460 > 100 µM | HOP-18 > 100 µM

CCCCCCCCCCCCCCCCCCN(C)CC(COC)OP(=O)([O-])OCC[N+](C)(C)C (configuration not stated)
inactive: COLO 205 1.21 µM | MOLT-4 2.83 µM | SNB-78 3.56 µM | UO-31 7.52 µM | HCT-116 1.66 µM | SK-MEL-28 15.7 µM | CCRF-CEM 1.51 µM | HOP-62 1.72 µM | MCF7 3.97 µM | M14 4.11 µM | LXFL 529 2.21 µM | LOX IMVI 5.14 µM | A498 3.77 µM | RXF 631 5.25 µM | ACHN 1.91 µM | OVCAR-4 2.54 µM | DMS-114 2.84 µM | OVCAR-5 1.72 µM | CAKI-1 1.33 µM | SN12C 3.3 µM | NCI-H522 1.43 µM | UACC-62 3.05 µM | NCI/ADR-RES 17.9 µM | XF498 4.93 µM | SW-620 3.15 µM | Hs-578T 4.93 µM | T47D 14 µM | SK-MEL-5 9.44 µM | MDA-N 4.2 µM | NCI-H226 4.32 µM | Malme-3M 11.7 µM | DU-145 2.22 µM | K562 9.42 µM | UACC-257 9.08 µM | OVCAR-8 3.27 µM | HOP-92 1.17 µM | SK-OV-3 11.2 µM | SF-539 3.84 µM | A549 1.78 µM | BT-549 2.53 µM | EKVX 12.5 µM | KM-20L2 2 µM | DLD-1 1.47 µM | NCI-H23 3.16 µM | SF-268 1.48 µM | M19-MEL 2.75 µM | HT-29 1.28 µM | OVCAR-3 2.24 µM | MDA-MB-435 5.08 µM | HCC 2998 1.42 µM | SK-MEL-2 14.4 µM | HOP-18 1.85 µM
3.14 µM: HCT-15
active: RXF 393 0.824 µM | SR 0.341 µM | U-251 0.891 µM | PC-3 0.374 µM | IGROV-1 0.532 µM | RPMI-8226 0.635 µM | TK-10 1.03 µM | SNB-19 0.867 µM | HL-60 0.495 µM | SF-295 1.07 µM | DMS-273 0.625 µM | 786-0 0.938 µM | SNB-75 1.01 µM | KM12 0.644 µM | NCI-H460 0.851 µM
